Source: PubChem BioAssay AID330 (DTP/NCI, 2004)
“And” between values parts separate entries of the source, which are not always exact repeats. Equal entries are not always repeated. Toxic doses and inconclusive results are not listed.

Test system: P388 leukemia ip, CD2F1 mice, survival T/C
Test: NCI In Vivo Anticancer Drug Screen. Data for tumor model P388 Leukemia (intraperitoneal) in CD2F1 (CDF1) mice
Settings: endpoint: median survival time, higher = longer survival
Summary of the method: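 Mice carrying the transplanted tumor received test compound or vehicle. Survival was recorded in each group, and the value is the treated-group measurement divided by that of the vehicle-treated control group.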

[1] = dose: 50.0 mg/kg/injection, schedule: Q01DX005 (ip), vehicle: saline with Tween-80
[2] = dose: 100.0 mg/kg/injection, schedule: Q01DX005 (ip), vehicle: saline with Tween-80
[3] = dose: 200.0 mg/kg/injection, schedule: Q01DX005 (ip), vehicle: saline with Tween-80
[4] = dose: 15.0 mg/kg/injection, schedule: Q01DX005 (ip), vehicle: saline with Tween-80
[5] = dose: 30.0 mg/kg/injection, schedule: Q01DX005 (ip), vehicle: saline with Tween-80
[6] = dose: 60.0 mg/kg/injection, schedule: Q01DX005 (ip), vehicle: saline with Tween-80
[7] = dose: 120.0 mg/kg/injection, schedule: Q01DX005 (ip), vehicle: saline with Tween-80
[8] = dose: 240.0 mg/kg/injection, schedule: Q01DX005 (ip), vehicle: saline with Tween-80
[9] = dose: 50.0 mg/kg/injection, schedule: Q01DX005 (ip), vehicle: Klucel (hydroxypropylcellulose) (HPC)
[10] = dose: 100.0 mg/kg/injection, schedule: Q01DX005 (ip), vehicle: Klucel (hydroxypropylcellulose) (HPC)
[11] = dose: 200.0 mg/kg/injection, schedule: Q01DX005 (ip), vehicle: Klucel (hydroxypropylcellulose) (HPC)
[12] = dose: 50.0 mg/kg/injection, schedule: Q01DX009 (ip), vehicle: saline with Tween-80
[13] = dose: 100.0 mg/kg/injection, schedule: Q01DX009 (ip), vehicle: saline with Tween-80
[14] = dose: 200.0 mg/kg/injection, schedule: Q01DX009 (ip), vehicle: saline with Tween-80
[15] = dose: 400.0 mg/kg/injection, schedule: Q01DX009 (ip), vehicle: saline with Tween-80
[16] = dose: 50.0 mg/kg/injection, schedule: Q01DX009 (ip), vehicle: saline

COc1ccc(-c2oc(=O)cc(-c3ccccc3)c2-c2ccccc2)cc1
T/C [1]: 112 % of control
T/C [2]: 93 % of control
T/C [3]: 87 % of control

CC1(C)CC(=O)C(=[N+]=[N-])C(=O)C1
T/C (dose: 7.5 mg/kg/injection, schedule: Q01DX005 (ip), vehicle: saline with Tween-80): 105 % of control
T/C [4]: 105 % of control
T/C [5]: 102 % of control

CSC(=N\N=C\c1cccs1)/N=C/N(C)C
T/C [6]: 92 % of control
T/C [7]: 99 % of control
T/C [8]: 97 % of control

COc1cc(Br)c(C(C)(C)C#N)cc1OC
T/C [9]: 101 % of control
T/C [10]: 101 % of control
T/C [11]: 100 % of control

S=C1SCN(C2CCCCCCCCCCC2)CN1C1CCCCCCCCCCC1
T/C [12]: 94 % of control
T/C [13]: 93 % of control
T/C [14]: 97 % of control
T/C [15]: 101 % of control

O=C1C(O)=C(c2ccccc2)C(=O)C(O)=C1c1ccccc1
T/C (dose: 12.5 mg/kg/injection, schedule: Q01DX009 (ip), vehicle: saline): 101 % of control and 124 % of control
T/C [16]: 157 % of control and 164 % of control

CCOc1ccc2ccc3ccc(OCC)nc3c2n1
T/C [6]: 89 % of control
T/C [7]: 98 % of control
T/C [8]: 95 % of control

C=CC1CC(NC(=O)OC)C(=O)O1 (stereo not drawn)
T/C [1]: 104 % of control
T/C [2]: 104 % of control
T/C [3]: 99 % of control

CCN(CC)C(=O)CSc1ccc(Cl)nn1
T/C [12]: 97 % of control
T/C [13]: 98 % of control
T/C [14]: 94 % of control

CCN(CC)Cc1c(C)[nH]c2cc(Cl)ccc2c1=O
T/C (dose: 100.0 mg/kg/injection, schedule: Q01DX001 (ip), vehicle: saline with Tween-80): 88 % of control

CC(C)(C)C1=CP(=O)(c2ccccc2)C=C(C(C)(C)C)N1
T/C [1]: 106 % of control
T/C [2]: 108 % of control
T/C [3]: 98 % of control

O=[N+]([O-])c1ccccc1CSc1ncnc2nc[nH]c12
T/C (dose: 50.0 mg/kg/injection, schedule: Q04DX003 (ip), vehicle: saline with Tween-80): 95 % of control
T/C [13]: 90 % of control
T/C (dose: 100.0 mg/kg/injection, schedule: Q04DX003 (ip), vehicle: saline with Tween-80): 109 % of control
T/C [14]: 100 % of control
T/C (dose: 200.0 mg/kg/injection, schedule: Q04DX003 (ip), vehicle: saline with Tween-80): 104 % of control
T/C [15]: 118 % of control

CSc1ccc(NC(=S)SCc2ccc(Cl)cc2)cc1Cl
T/C (dose: 50.0 mg/kg/injection, schedule: Q01DX009 (ip), vehicle: suspension in saline): 108 % of control
T/C (dose: 100.0 mg/kg/injection, schedule: Q01DX009 (ip), vehicle: suspension in saline): 117 % of control
T/C (dose: 200.0 mg/kg/injection, schedule: Q01DX009 (ip), vehicle: suspension in saline): 116 % of control

C/C=C/C/C=C/CCC(=O)C1OC1C(N)=O (stereo not drawn)
T/C (dose: 8.0 mg/kg/injection, schedule: Q01DX009 (ip), vehicle: Klucel (hydroxypropylcellulose) (HPC)): 93 % of control
T/C (dose: 16.0 mg/kg/injection, schedule: Q01DX009 (ip), vehicle: Klucel (hydroxypropylcellulose) (HPC)): 93 % of control
T/C (dose: 32.0 mg/kg/injection, schedule: Q01DX009 (ip), vehicle: Klucel (hydroxypropylcellulose) (HPC)): 102 % of control
T/C (dose: 64.0 mg/kg/injection, schedule: Q01DX009 (ip), vehicle: Klucel (hydroxypropylcellulose) (HPC)): 93 % of control

N#CC(c1ccc(Cl)cc1)C(c1ccccc1)c1ccccc1 (stereo not drawn)
T/C [12]: 112 % of control
T/C [13]: 107 % of control
T/C [14]: 112 % of control

O=c1[nH]c(=S)c2c(n1CCCO)CCC2
T/C [9]: 97 % of control
T/C [10]: 101 % of control
T/C [11]: 105 % of control

CC(=O)O[C@@H]1CCC2CCC1N2C (stereo partly drawn)
T/C (dose: 50.0 mg/kg/injection, schedule: Q01DX005 (ip), vehicle: saline): 97 % of control
T/C (dose: 100.0 mg/kg/injection, schedule: Q01DX005 (ip), vehicle: saline): 95 % of control
T/C (dose: 200.0 mg/kg/injection, schedule: Q01DX005 (ip), vehicle: saline): 95 % of control

Nc1nnn(N)n1
T/C (dose: 100.0 mg/kg/injection, schedule: Q04DX003 (ip), vehicle: saline): 92 % of control
T/C (dose: 200.0 mg/kg/injection, schedule: Q04DX003 (ip), vehicle: saline): 100 % of control

N#C/C(=C\c1ccc2c(c1)OCO2)C(=O)N/N=C/c1ccc2c(c1)OCO2
T/C [16]: 101 % of control
T/C (dose: 100.0 mg/kg/injection, schedule: Q01DX009 (ip), vehicle: saline): 98 % of control
T/C (dose: 200.0 mg/kg/injection, schedule: Q01DX009 (ip), vehicle: saline): 94 % of control

CC1C[N+]2(CNC(=O)c3ccccc3O)CC(C)O[B-]2(c2ccccc2)O1 (stereo not drawn)
T/C [9]: 103 % of control
T/C [10]: 100 % of control
T/C [11]: 103 % of control

O=C(Oc1ccccc1)OC1CCCN(C(=O)Oc2ccccc2)C1 (stereo not drawn)
T/C (dose: 50.0 mg/kg/injection, schedule: Q01DX009 (ip), vehicle: Klucel (hydroxypropylcellulose) (HPC)): 93 % of control
T/C (dose: 100.0 mg/kg/injection, schedule: Q01DX009 (ip), vehicle: Klucel (hydroxypropylcellulose) (HPC)): 93 % of control
T/C (dose: 200.0 mg/kg/injection, schedule: Q01DX009 (ip), vehicle: Klucel (hydroxypropylcellulose) (HPC)): 93 % of control

COC(=O)CCSC(=S)NCc1ccccc1
T/C [9]: 98 % of control
T/C [10]: 96 % of control
T/C [11]: 102 % of control

ClCCN(CCCl)c1ccc(/C=N/Nc2c3ccccc3nc3ccccc23)cc1
T/C (dose: 6.25 mg/kg/injection, schedule: Q01DX009 (ip), vehicle: DMSO): 88 % of control
T/C (dose: 12.5 mg/kg/injection, schedule: Q01DX009 (ip), vehicle: DMSO): 90 % of control

OCC1NCCC(O)C1OC1OC(CO)C(O)C(O)C1O (stereo not drawn)
T/C (dose: 6.88 mg/kg/injection, schedule: Q01DX005 (ip), vehicle: water): 103 % of control
T/C (dose: 13.75 mg/kg/injection, schedule: Q01DX005 (ip), vehicle: water): 100 % of control
T/C (dose: 27.5 mg/kg/injection, schedule: Q01DX005 (ip), vehicle: water): 100 % of control
T/C (dose: 55.0 mg/kg/injection, schedule: Q01DX005 (ip), vehicle: water): 99 % of control

COc1cc([C@H]2c3cc4c(cc3CC3COC(=O)[C@@H]32)OCO4)cc(Br)c1O (stereo partly drawn)
T/C [4]: 101 % of control
T/C [5]: 101 % of control
T/C [6]: 99 % of control and 104 % of control
T/C [7]: 110 % of control
T/C [8]: 110 % of control
